In patent US12398132B2, “Derivatives of 4-(imidazo[1,2-a]pyridin-3-yl)-n-(pyridinyl)pyrimidin-2-amine as therapeutic agents” (AUCENTRA THERAPEUTICS PTY LTD, priority 2019, dated 2025):
Substitutions are numbered along the chain they refer to. Where two headings read alike, the source gives them in different places.

Experiments:
[1] = molecular target: CDK9/CyclinT1 (Homo sapiens, UniProt P50750); assay: ADP Glo kinase assay, CDK9/CyclinT1; assay type: biochemical; conditions: CDK9T1; for remaining activity at 10 µM: compound at 10 μM, read-out: residual enzymatic activity (%) at 10 μM; for Ki: apparent Ki calculated from Km (ATP) and IC50, read-out: CDK inhibition Ki
Sequence of CDK9/CyclinT1 (P50750 whole entry, species assumed): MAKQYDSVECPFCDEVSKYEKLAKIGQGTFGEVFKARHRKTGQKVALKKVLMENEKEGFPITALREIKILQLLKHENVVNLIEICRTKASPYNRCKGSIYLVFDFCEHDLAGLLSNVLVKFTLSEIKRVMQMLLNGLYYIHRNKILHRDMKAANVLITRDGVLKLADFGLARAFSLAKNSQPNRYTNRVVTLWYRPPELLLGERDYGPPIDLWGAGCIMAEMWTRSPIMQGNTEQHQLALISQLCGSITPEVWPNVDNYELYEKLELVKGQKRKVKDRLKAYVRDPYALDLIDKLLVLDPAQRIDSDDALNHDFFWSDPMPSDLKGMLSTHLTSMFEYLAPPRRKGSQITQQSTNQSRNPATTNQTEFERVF
Sequence of CDK9/CyclinT1 (O60563 whole entry partner, species assumed): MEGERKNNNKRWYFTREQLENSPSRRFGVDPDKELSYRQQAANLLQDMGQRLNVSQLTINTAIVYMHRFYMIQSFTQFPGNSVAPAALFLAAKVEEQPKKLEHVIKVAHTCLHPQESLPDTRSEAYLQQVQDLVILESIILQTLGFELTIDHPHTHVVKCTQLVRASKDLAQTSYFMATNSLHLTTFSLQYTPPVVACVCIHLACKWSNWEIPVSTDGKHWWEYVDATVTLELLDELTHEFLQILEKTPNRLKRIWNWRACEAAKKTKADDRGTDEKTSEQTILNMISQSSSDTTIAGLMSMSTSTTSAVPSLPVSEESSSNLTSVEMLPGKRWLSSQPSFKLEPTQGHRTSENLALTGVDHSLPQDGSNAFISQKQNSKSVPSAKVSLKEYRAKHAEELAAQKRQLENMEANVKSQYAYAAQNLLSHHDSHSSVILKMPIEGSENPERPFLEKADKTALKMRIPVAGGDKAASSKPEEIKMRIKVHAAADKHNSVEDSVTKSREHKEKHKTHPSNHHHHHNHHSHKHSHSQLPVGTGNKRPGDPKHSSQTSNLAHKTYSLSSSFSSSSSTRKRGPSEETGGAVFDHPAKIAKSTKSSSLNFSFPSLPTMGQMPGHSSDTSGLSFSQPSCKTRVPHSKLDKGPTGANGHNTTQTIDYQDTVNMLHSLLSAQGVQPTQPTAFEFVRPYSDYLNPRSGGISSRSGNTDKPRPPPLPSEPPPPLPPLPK
Protocol: (§1) Inhibition of FLT3(WT), FLT3(ITD) and FLT3(D835Y) and CDKs were determined using ADP Glo Kinase assays (Promega Corporation, Madison, WI, USA). […] Similarly, kinase reaction for CDK4/D1 and CDK6/D3 was performed with reaction buffer (40 nM Tris base pH 7.5, 20 mM MgCl2, 0.4 mM DTT), 0.1 mg/ml BSA and RB-CTF substrate (retinoblastoma protein1 C-terminal fraction). For CDK9/CyclinT1, the kinase reaction was performed with the standard assay buffer and Kinase Dilution Buffer and RBER-IRStide substrate. Half-maximal inhibition (IC50) values were calculated using a 4-parameter logistic non-linear regression model with Graphpad prism (Version 6.0). Apparent inhibition constants (Ki) values were calculated from Km (ATP) and IC50 values for the respective kinases.

[2] = molecular target: CDK2E1 (Homo sapiens, UniProt P24941); conditions: 1 µM
[3] = molecular target: CDK6/D3 (Homo sapiens, UniProt Q00534); assay: ADP Glo kinase assay, CDK6/D3; assay type: biochemical; conditions: CDK6D3; for remaining activity at 10 µM: compound at 10 μM, read-out: residual enzymatic activity (%) at 10 μM; for remaining activity at 1 µM: compound at 1 μM (values marked *), read-out: residual enzymatic activity (%) at 1 μM*
Sequence of CDK6/D3 (Q00534 whole entry, species assumed): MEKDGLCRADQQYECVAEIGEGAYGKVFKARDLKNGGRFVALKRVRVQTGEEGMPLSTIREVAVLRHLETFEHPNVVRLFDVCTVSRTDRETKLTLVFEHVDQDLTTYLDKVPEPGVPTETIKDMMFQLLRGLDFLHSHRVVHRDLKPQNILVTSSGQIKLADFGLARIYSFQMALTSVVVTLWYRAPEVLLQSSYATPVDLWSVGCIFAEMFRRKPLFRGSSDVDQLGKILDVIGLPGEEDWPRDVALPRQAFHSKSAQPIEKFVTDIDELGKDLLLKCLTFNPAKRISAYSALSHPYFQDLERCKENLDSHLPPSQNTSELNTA
Sequence of CDK6/D3 (P30281 whole entry partner, species assumed): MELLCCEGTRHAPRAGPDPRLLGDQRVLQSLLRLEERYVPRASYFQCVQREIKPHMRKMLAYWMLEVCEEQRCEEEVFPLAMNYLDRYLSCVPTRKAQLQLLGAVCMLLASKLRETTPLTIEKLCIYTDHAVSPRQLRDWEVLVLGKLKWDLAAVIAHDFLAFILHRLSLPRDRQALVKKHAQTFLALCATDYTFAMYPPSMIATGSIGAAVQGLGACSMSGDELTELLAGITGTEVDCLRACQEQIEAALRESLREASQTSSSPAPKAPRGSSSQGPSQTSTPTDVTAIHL

[4] = molecular target: CDK7HMAT1 (Homo sapiens, UniProt P50613); conditions: 10 µM;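 also: kinase activity measured with an ADP-Glo luminescent kinase assay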
Sequence of CDK7HMAT1 (P50613 whole entry): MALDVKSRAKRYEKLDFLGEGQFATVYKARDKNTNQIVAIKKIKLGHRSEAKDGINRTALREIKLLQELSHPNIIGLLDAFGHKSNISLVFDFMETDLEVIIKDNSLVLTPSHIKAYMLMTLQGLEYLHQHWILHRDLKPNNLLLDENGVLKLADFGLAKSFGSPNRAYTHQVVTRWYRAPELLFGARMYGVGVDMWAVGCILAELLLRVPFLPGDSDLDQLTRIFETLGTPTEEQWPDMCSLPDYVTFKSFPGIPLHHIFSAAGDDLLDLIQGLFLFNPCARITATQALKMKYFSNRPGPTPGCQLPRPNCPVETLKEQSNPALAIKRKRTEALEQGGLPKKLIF
Sequence of CDK7HMAT1 (P51946 whole entry partner): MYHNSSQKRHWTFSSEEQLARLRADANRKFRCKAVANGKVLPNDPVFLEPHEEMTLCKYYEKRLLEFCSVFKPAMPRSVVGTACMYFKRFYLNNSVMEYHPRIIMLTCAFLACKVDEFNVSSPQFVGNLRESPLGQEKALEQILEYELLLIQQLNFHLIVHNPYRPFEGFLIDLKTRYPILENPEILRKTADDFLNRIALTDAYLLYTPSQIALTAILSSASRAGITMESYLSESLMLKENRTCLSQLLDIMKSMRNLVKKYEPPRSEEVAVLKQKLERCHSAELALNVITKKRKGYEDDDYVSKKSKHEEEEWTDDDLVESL
Sequence of CDK7HMAT1 (P51948 whole entry partner): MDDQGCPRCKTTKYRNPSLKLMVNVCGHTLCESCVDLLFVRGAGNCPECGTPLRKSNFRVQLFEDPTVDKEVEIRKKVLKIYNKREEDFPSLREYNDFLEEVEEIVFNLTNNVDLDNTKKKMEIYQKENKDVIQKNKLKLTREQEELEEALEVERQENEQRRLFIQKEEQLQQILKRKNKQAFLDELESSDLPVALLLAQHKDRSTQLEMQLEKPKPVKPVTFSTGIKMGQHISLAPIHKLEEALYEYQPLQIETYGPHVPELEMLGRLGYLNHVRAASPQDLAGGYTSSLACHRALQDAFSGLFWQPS

[5] = molecular target: T1, FLT3(ITD) (Homo sapiens, UniProt P36888); assay: ADP Glo kinase assay, FLT3(ITD); assay type: biochemical; conditions: apparent Ki calculated from Km (ATP) and IC50, read-out: FLT3 inhibition Ki
T1 sequence (P36888 1-993): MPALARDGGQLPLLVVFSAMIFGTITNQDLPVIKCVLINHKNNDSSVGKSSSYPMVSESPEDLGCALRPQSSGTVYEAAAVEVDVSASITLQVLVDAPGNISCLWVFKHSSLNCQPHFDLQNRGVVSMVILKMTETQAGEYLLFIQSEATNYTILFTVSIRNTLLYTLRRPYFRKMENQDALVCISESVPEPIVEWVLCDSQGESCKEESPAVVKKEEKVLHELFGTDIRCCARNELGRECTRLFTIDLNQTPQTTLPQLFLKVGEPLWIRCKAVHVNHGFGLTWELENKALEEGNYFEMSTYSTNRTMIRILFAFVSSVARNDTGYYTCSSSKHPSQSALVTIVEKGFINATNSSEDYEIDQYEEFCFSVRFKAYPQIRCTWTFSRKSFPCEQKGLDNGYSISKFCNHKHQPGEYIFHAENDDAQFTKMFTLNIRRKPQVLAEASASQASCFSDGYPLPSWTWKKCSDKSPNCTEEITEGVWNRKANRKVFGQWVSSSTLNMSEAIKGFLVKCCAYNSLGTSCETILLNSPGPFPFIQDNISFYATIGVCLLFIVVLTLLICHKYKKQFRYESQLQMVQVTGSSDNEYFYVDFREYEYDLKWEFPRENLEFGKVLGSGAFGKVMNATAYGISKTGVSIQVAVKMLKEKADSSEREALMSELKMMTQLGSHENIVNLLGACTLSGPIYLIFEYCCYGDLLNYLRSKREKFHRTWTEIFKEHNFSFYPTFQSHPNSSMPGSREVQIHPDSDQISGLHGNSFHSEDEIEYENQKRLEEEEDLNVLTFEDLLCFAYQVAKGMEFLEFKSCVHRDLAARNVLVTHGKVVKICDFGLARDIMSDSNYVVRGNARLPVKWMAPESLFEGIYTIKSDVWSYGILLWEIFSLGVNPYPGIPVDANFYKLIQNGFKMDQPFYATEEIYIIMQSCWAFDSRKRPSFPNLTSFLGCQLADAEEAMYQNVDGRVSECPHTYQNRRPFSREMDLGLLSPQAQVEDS

[6] = molecular target: T2, FLT3(D835Y) (Homo sapiens, UniProt P36888, D835Y); assay: ADP Glo kinase assay, FLT3(D835Y); assay type: biochemical; conditions: apparent Ki calculated from Km (ATP) and IC50, read-out: FLT3 inhibition Ki
T2 sequence (P36888 27-993 D835Y): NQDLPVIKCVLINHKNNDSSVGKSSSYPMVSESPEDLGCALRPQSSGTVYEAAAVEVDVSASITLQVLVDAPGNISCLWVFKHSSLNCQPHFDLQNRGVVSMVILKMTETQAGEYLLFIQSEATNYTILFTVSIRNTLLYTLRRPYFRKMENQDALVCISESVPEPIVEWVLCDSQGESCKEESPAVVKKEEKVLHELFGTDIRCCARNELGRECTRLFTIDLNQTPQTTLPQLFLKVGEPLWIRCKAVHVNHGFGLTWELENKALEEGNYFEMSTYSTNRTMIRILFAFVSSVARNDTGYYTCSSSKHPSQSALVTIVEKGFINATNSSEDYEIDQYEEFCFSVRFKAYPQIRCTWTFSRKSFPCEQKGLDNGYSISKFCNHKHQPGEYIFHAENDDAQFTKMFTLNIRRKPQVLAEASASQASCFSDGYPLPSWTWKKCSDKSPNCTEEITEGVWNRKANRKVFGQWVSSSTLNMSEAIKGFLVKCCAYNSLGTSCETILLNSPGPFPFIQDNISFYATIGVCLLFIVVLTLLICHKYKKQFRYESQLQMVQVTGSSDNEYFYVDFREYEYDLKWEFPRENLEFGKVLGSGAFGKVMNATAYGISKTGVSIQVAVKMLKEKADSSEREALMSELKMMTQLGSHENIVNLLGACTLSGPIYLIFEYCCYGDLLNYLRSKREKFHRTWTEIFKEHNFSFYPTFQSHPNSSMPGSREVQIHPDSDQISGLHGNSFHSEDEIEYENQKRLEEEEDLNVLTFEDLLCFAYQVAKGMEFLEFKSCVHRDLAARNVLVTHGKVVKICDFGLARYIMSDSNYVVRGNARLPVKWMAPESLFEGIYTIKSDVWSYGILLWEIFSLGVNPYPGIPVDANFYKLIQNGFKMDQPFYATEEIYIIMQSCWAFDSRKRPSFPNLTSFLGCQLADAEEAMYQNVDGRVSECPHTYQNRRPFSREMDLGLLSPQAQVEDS
Protocol: (§2) Inhibition of FLT3(WT), FLT3(ITD) and FLT3(D835Y) and CDKs were determined using ADP Glo Kinase assays (Promega Corporation, Madison, WI, USA). […] The kinase reactions are run for an optimised time period (FLT3-WT: 120 min, FLT3-ITD: 80 min, FLT3-D835Y: 100 min) at room temperature and then the reaction was stopped by adding 5 μL of ADP Glo reagent. […] Positive and negative controls were performed in 0.5% DMSO in the presence and absence of each FLT3 kinase, respectively. […] Half-maximal inhibition (IC50) values were calculated using a 4-parameter logistic non-linear regression model with Graphpad prism (Version 6.0). Apparent inhibition constants (Ki) values were calculated from Km (ATP) and IC50 values for the respective kinases.

[7] = molecular target: CDK4/D1 (Homo sapiens, UniProt P11802); assay: ADP Glo kinase assay, CDK4/D1; assay type: biochemical; conditions: CDK4D1; for remaining activity at 10 µM: compound at 10 μM, read-out: residual enzymatic activity (%) at 10 μM; for remaining activity at 1 µM: compound at 1 μM (values marked *), read-out: residual enzymatic activity (%) at 1 μM*
Sequence of CDK4/D1 (P11802 whole entry, species assumed): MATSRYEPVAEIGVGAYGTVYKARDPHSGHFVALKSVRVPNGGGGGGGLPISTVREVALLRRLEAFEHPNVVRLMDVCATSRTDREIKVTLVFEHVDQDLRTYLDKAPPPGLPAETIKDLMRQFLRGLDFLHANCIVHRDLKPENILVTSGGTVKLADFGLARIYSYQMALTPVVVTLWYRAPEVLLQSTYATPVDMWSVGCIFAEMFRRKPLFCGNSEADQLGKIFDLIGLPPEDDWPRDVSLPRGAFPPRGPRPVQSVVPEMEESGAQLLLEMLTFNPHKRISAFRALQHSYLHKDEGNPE
Sequence of CDK4/D1 (P24385 whole entry partner, species assumed): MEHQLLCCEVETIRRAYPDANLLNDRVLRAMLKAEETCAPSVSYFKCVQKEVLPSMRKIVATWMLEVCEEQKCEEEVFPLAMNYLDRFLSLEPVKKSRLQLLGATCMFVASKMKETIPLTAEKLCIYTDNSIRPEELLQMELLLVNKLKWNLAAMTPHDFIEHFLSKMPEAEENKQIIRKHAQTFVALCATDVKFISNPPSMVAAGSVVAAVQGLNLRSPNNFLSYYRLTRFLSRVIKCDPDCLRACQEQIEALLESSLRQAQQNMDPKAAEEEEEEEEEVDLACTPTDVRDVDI
Protocol: as §1

[8] = molecular target: CDK1B (Homo sapiens, UniProt P06493)
Sequence of CDK1B (P06493 whole entry): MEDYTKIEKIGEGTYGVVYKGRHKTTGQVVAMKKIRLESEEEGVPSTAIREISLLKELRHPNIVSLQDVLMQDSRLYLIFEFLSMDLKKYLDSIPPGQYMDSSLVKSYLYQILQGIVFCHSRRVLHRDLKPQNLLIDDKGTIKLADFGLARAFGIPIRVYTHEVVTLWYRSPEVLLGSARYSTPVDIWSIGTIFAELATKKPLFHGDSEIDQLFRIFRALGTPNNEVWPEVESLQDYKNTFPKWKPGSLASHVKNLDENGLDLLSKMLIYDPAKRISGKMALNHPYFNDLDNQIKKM
Sequence of CDK1B (P14635 whole entry partner): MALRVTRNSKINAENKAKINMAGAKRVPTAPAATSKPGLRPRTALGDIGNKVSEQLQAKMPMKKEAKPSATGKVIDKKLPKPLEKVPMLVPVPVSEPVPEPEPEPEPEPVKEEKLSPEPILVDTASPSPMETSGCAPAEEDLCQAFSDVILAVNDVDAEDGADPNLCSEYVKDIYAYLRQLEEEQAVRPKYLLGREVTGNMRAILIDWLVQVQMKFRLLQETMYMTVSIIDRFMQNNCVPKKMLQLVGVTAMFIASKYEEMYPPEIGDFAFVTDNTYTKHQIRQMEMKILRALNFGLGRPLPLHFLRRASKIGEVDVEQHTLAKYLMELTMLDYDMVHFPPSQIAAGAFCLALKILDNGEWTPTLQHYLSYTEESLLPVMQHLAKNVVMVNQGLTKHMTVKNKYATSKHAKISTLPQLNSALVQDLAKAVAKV

[9] = molecular target: T3, FLT3(WT) (Homo sapiens, UniProt P36888); assay: ADP Glo kinase assay, FLT3(WT); assay type: biochemical; conditions: for remaining activity at 1 µM: compound at 1 μM, read-out: residual enzymatic activity (%) at 1 μM; for Ki: apparent Ki calculated from Km (ATP) and IC50, read-out: FLT3 inhibition Ki
T3 sequence (P36888 27-993): T2 sequence (P36888 27-993 D835Y) with Y809D
Protocol: as §2

[10] = test system: MV-4-11; assay: Proliferation assay (resazurin/MTT), MV-4-11; assay type: cell-based; conditions: Homo sapiens, MV4-11, read-out: 72 h Growth inhibition GI50, MV-4-11 cells
[11] = test system: U937; assay: Proliferation assay (resazurin/MTT), U937; assay type: cell-based; conditions: Homo sapiens, U-937, read-out: 72 h Growth inhibition GI50, U937 cells

remaining activity at 10 µM [1] [%]	activity [2] [%]	remaining activity at 10 µM [3] [%]	activity [4] [%]	Ki [5] [nM]	Ki [6] [nM]	remaining activity at 10 µM [7] [%]	activity ([8]; 10 µM) [%]	remaining activity at 1 µM [9] [%]	GI50 [10] [nM]	GI50 [11] [nM]	Ki [9] [nM]	Ki [1] [nM]	remaining activity at 1 µM [3] [%]	remaining activity at 1 µM [7] [%]	activity ([8]; 1 µM) [%]	Compound
28	81	23	84	63	45	53	48	45	75	6200						c1ccn2c(-c3ccnc(Nc4ccc(N5CCCCC5)cn4)n3)cnc2c1 [Cmpd 5, 4-(Imidazo[1,2-a]pyridin-3-yl)-N-(5-(piperidin-1-yl)pyridin-2-yl)pyrimidin-2-amine]
28	64	32	76	30	9	46	94		15	797	117					CC(=O)N1CCN(c2ccc(Nc3nccc(-c4cnc5ccc(Cl)cn45)n3)nc2)CC1 [Cmpd 9, 1-(4-(6-((4-(6-Chloroimidazo[1,2-a]pyridin-3-yl)pyrimidin-2-yl)amino)pyridin-3-yl)piperazin-1-yl)ethan-1-one]
	90	99	60	426	48	78	81	23	18	2920						CC(=O)N1CCN(c2ccc(Nc3nccc(-c4cnc5ccc(-c6cncnc6)cn45)n3)nc2)CC1 [Cmpd 16, 1-(4-(6-((4-(6-(Pyrimidin-5-yl)imidazo[1,2-a]pyridin-3-yl)pyrimidin-2-yl)amino)pyridin-3-yl)piperazin-1-yl)ethan-1-one]
	49			15	13				23	1960	25	111	46	34	71	CN1CCN(c2ccc(Nc3nccc(-c4cnc5ccc(Br)cn45)n3)nc2)CC1 [Cmpd 45, 4-(6-Bromoimidazo[1,2-a]pyridin-3-yl)-N-(5-(4-methylpiperazin-1-yl)pyridin-2-yl)pyrimidin-2-amine]
62	103			489	> 500				545	645	> 500		85	72	79	Brc1ccc(Nc2nccc(-c3cnc4ccccn34)n2)nc1 [Cmpd 47, N-(5-Bromopyridin-2-yl)-4-(imidazo[1,2-a]pyridin-3-yl)pyrimidin-2-amine]
	52			421	584				213	691	> 500					Clc1ccc(Nc2nccc(-c3cnc4ccccn34)n2)nc1 [Cmpd 52, N-(5-Chloropyridin-2-yl)-4-(imidazo[1,2-a]pyridin-3-yl)pyrimidin-2-amine]
	99			> 500	> 500				382	2500	> 500					Ic1ccc(Nc2nccc(-c3cnc4ccccn34)n2)nc1 [Cmpd 53, 4-(Imidazo[1,2-a]pyridin-3-yl)-N-(5-iodopyridin-2-yl)pyrimidin-2-amine]
	80			116					174	1090		345				CN1CCN(c2ccc(Nc3nccc(-c4cnc5ccc(-c6cncnc6)cn45)n3)nc2)CC1 [Cmpd 66, N-(5-(4-Methylpiperazin-1-yl)pyridin-2-yl)-4-(6-(pyrimidin-5-yl)imidazo[1,2-a]pyridin-3-yl)pyrimidin-2-amine]
				16					18	946						CN(C)C1CCN(c2ccc(Nc3ncc(F)c(-c4cnc5ccc(-c6ccccc6)cn45)n3)nc2)CC1 [Cmpd 69, N-(5-(4-(Dimethylamino)piperidin-1-yl)pyridin-2-yl)-5-fluoro-4-(6-phenylimidazo[1,2-a]pyridin-3-yl)pyrimidin-2-amine]
